How the values were obtained:
[1] = test system: barnyardgrass; assay: Test A preemergence; assay type: in vivo, Echinochloa crus-galli
Method in brief: (§1)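 Scoring: eye-based comparison with untreated controls, 0 for no effect through 100 for complete control, at about day 10. Treatments: directed soil spray preemergence; foliar spray postemergence on 2–10 cm plants at the one- to two-leaf stage. Medium: loam soil with sand.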

[2] = test system: large (Lg) crabgrass; assay: Test A preemergence; assay type: in vivo, Digitaria sanguinalis
Method in brief: as §1

[3] = test system: giant foxtail; assay: Test A preemergence; assay type: in vivo, Setaria faberii
Method in brief: as §1

[4] = test system: morningglory; assay: Test A preemergence; assay type: in vivo, Ipomoea spp.
Method in brief: as §1

[5] = test system: pigweed; assay: Test A preemergence; assay type: in vivo, Amaranthus retroflexus
Method in brief: as §1

[6] = test system: velvetleaf; assay: Test A preemergence; assay type: in vivo, Abutilon theophrasti
Method in brief: as §1

[7] = test system: wheat; assay: Test A preemergence; assay type: in vivo, Triticum aestivum
Method in brief: as §1

[8] = test system: corn; assay: Test A preemergence; assay type: in vivo, Zea mays
Method in brief: as §1

[9] = test system: barnyardgrass; assay: Test A postemergence; assay type: in vivo, Echinochloa crus-galli
Method in brief: as §1

[10] = test system: large (Lg) crabgrass; assay: Test A postemergence; assay type: in vivo, Digitaria sanguinalis
Method in brief: as §1

[11] = test system: giant foxtail; assay: Test A postemergence; assay type: in vivo, Setaria faberii
Method in brief: as §1

[12] = test system: morningglory; assay: Test A postemergence; assay type: in vivo, Ipomoea spp.
Method in brief: as §1

[13] = test system: pigweed; assay: Test A postemergence; assay type: in vivo, Amaranthus retroflexus
Method in brief: as §1

[14] = test system: velvetleaf; assay: Test A postemergence; assay type: in vivo, Abutilon theophrasti
Method in brief: as §1

[15] = test system: wheat; assay: Test A postemergence; assay type: in vivo, Triticum aestivum
Method in brief: as §1

[16] = test system: corn; assay: Test A postemergence; assay type: in vivo, Zea mays
Method in brief: as §1

[17] = test system: rice; assay: Test B flooded paddy test; assay type: in vivo, Oryza sativa; details: Flood, 250 g ai/ha; 0 to 100 scale where 0 is no effect and 100 is complete control
Method in brief: (§2)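 Flooded to 3 cm at the 2-leaf stage, pots received compound through the paddy water and were kept at that depth under greenhouse conditions. After 13–15 days, effect was rated by eye relative to controls, 0 = none and 100 = complete control.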

[18] = test system: sedge, umbrella; assay: Test B flooded paddy test; assay type: in vivo, Cyperus difformis; details: Flood, 250 g ai/ha; 0 to 100 scale where 0 is no effect and 100 is complete control
Method in brief: as §2

[19] = test system: Heteranthera limosa; assay: Test B flooded paddy test; assay type: in vivo; details: Flood, 250 g ai/ha; 0 to 100 scale where 0 is no effect and 100 is complete control
Method in brief: as §2

[20] = test system: barnyardgrass; assay: Test B flooded paddy test; assay type: in vivo, Echinochloa crus-galli; details: Flood, 250 g ai/ha; 0 to 100 scale where 0 is no effect and 100 is complete control
Method in brief: as §2

[21] = 500 g ai/ha, 0 to 100 scale where 0 is no effect and 100 is complete control
[22] = 125 g ai/ha, 0 to 100 scale where 0 is no effect and 100 is complete control
[23] = 1000 g ai/ha, 0 to 100 scale, 0 no effect, 100 complete control, approx. 10 days
[24] = 1000 g ai/ha, 0 to 100 scale, 0 no effect, 100 complete control
[25] = 500 g ai/ha, 0 to 100 scale, 0 no effect, 100 complete control, approx. 10 days
[26] = 500 g ai/ha, 0 to 100 scale, 0 no effect, 100 complete control
[27] = 125 g ai/ha, 0 to 100 scale, 0 no effect, 100 complete control

## O=Cc1cccc(Oc2ncc(Br)cn2)c1-n1cc(Cl)cn1 [Compound 206]
[1]; 125 g ai/ha
  Barnyardgrass plant response rating (0 to 100 scale, 0 is no effect, 100 is complete control): 0
[1]; [21]
  Barnyardgrass plant response rating: 0
[2]; 125 g ai/ha
  Crabgrass, Large plant response rating (0 to 100 scale): 0
[2]; [21]
  Crabgrass, Large plant response rating: 0
[3]; 125 g ai/ha
  Foxtail, Giant plant response rating (0 to 100 scale): 0
[3]; [21]
  Foxtail, Giant plant response rating: 0
[4]; 125 g ai/ha
  Morningglory plant response rating (0 to 100 scale): 0
[4]; [21]
  Morningglory plant response rating: 0
[5]; 125 g ai/ha
  Pigweed plant response rating (0 to 100 scale): 0
[5]; [21]
  Pigweed plant response rating: 50
[6]; 125 g ai/ha
  Velvetleaf plant response rating (0 to 100 scale): 0
[6]; [21]
  Velvetleaf plant response rating: 0
[7]; 125 g ai/ha
  Wheat plant response rating (0 to 100 scale): 0
[7]; [21]
  Wheat plant response rating: 0
[8]; 125 g ai/ha
  Corn plant response rating (0 to 100 scale): 0
[8]; [21]
  Corn plant response rating: 0
[9]; [22]
  Barnyardgrass plant response rating: 0
[9]; [21]
  Plant response rating, Barnyardgrass: 0
[10]; [22]
  Crabgrass, Large plant response rating: 0
[10]; [21]
  Plant response rating, Crabgrass, Large: 0
[11]; [22]
  Foxtail, Giant plant response rating: 0
[11]; [21]
  Plant response rating, Foxtail, Giant: 0
[12]; [22]
  Morningglory plant response rating: 0
[12]; [21]
  Plant response rating, Morningglory: 0
[13]; [22]
  Pigweed plant response rating: 0
[13]; [21]
  Plant response rating, Pigweed: 0
[14]; [22]
  Velvetleaf plant response rating: 10
[14]; [21]
  Plant response rating, Velvetleaf: 20
[15]; [22]
  Wheat plant response rating: 0
[15]; [21]
  Plant response rating, Wheat: 0
[16]; [22]
  Corn plant response rating: 0
[16]; [21]
  Plant response rating, Corn: 0
[17]
  Plant response rating, Rice: 0
[18]
  Plant response rating, Sedge, Umbrella: 0
[19]
  Plant response rating, Ducksalad: 0
[20]
  Plant response rating, Barnyardgrass: 0

## CC(=O)Oc1cccc(Oc2ncc(Cl)cn2)c1-n1cc(Cl)cn1 [Compound 216]
[1]; [23]
  Barnyardgrass plant response rating: 30
[2]; [23]
  Crabgrass, Large plant response rating: 70
[3]; [23]
  Foxtail, Giant plant response rating: 40
[4]; [23]
  Morningglory plant response rating: 0
[5]; [23]
  Pigweed plant response rating: 100
[6]; [23]
  Velvetleaf plant response rating: 30
[7]; [23]
  Wheat plant response rating: 0
[8]; [23]
  Corn plant response rating: 0
[9]; [24]
  Plant response rating, Barnyardgrass: 0
[10]; [24]
  Plant response rating, Crabgrass, Large: 40
[11]; [24]
  Plant response rating, Foxtail, Giant: 30
[12]; [24]
  Plant response rating, Morningglory: 40
[13]; [24]
  Plant response rating, Pigweed: 100
[14]; [24]
  Plant response rating, Velvetleaf: 100
[15]; [24]
  Plant response rating, Wheat: 0
[16]; [24]
  Plant response rating, Corn: 0
[17]
  Plant response rating, Rice: 0
[18]
  Plant response rating, Sedge, Umbrella: 0
[19]
  Plant response rating, Ducksalad: 0
[20]
  Plant response rating, Barnyardgrass: 0

## C=C(C)c1cnn(-c2ccccc2Oc2ncc(Cl)cn2)c1 [Compound 32]
[1]; [22]
  Plant response rating, Barnyardgrass: 0
[1]; [25]
  Barnyardgrass plant response rating: 60
[2]; [22]
  Plant response rating, Crabgrass, Large: 0
[2]; [25]
  Crabgrass, Large plant response rating: 60
[3]; [22]
  Plant response rating, Foxtail, Giant: 0
[3]; [25]
  Foxtail, Giant plant response rating: 70
[4]; [22]
  Plant response rating, Morningglory: 0
[4]; [25]
  Morningglory plant response rating: 0
[5]; [22]
  Plant response rating, Pigweed: 0
[5]; [25]
  Pigweed plant response rating: 40
[6]; [22]
  Plant response rating, Velvetleaf: 10
[6]; [25]
  Velvetleaf plant response rating: 70
[7]; [22]
  Plant response rating, Wheat: 0
[7]; [25]
  Wheat plant response rating: 0
[8]; [22]
  Plant response rating, Corn: 0
[8]; [25]
  Corn plant response rating: 0
[9]; [22]
  Plant response rating, Barnyardgrass: 0
[9]; [26]
  Plant response rating, Barnyardgrass: 20
[10]; [22]
  Plant response rating, Crabgrass, Large: 50
[10]; [26]
  Plant response rating, Crabgrass, Large: 50
[11]; [22]
  Plant response rating, Foxtail, Giant: 0
[11]; [26]
  Plant response rating, Foxtail, Giant: 30
[12]; [22]
  Plant response rating, Morningglory: 0
[12]; [26]
  Plant response rating, Morningglory: 0
[13]; [22]
  Plant response rating, Pigweed: 50
[13]; [26]
  Plant response rating, Pigweed: 70
[14]; [22]
  Plant response rating, Velvetleaf: 80
[14]; [26]
  Plant response rating, Velvetleaf: 100
[15]; [22]
  Plant response rating, Wheat: 0
[15]; [26]
  Plant response rating, Wheat: 0
[16]; [22]
  Plant response rating, Corn: 0
[16]; [26]
  Plant response rating, Corn: 20
[17]
  Plant response rating, Rice: 15
[18]
  Plant response rating, Sedge, Umbrella: 0
[19]
  Plant response rating, Ducksalad: 0
[20]
  Plant response rating, Barnyardgrass: 0

## Clc1cnc(Oc2cccc(-c3cnoc3)c2-n2cc(Br)cn2)nc1 [Compound 291]
[1]; 125 g ai/ha
  Barnyardgrass plant response rating (0 to 100 scale, 0 is no effect, 100 is complete control): 0
[1]; [21]
  Barnyardgrass plant response rating: 50
[2]; 125 g ai/ha
  Crabgrass, Large plant response rating (0 to 100 scale): 50
[2]; [21]
  Crabgrass, Large plant response rating: 90
[3]; 125 g ai/ha
  Foxtail, Giant plant response rating (0 to 100 scale): 20
[3]; [21]
  Foxtail, Giant plant response rating: 80
[4]; 125 g ai/ha
  Morningglory plant response rating (0 to 100 scale): 0
[4]; [21]
  Morningglory plant response rating: 0
[5]; 125 g ai/ha
  Pigweed plant response rating (0 to 100 scale): 60
[5]; [21]
  Pigweed plant response rating: 90
[6]; 125 g ai/ha
  Velvetleaf plant response rating (0 to 100 scale): 40
[6]; [21]
  Velvetleaf plant response rating: 60
[7]; 125 g ai/ha
  Wheat plant response rating (0 to 100 scale): 0
[7]; [21]
  Wheat plant response rating: 0
[8]; 125 g ai/ha
  Corn plant response rating (0 to 100 scale): 0
[8]; [21]
  Corn plant response rating: 0
[9]; [27]
  Plant response rating, Barnyardgrass: 0
[9]; [21]
  Plant response rating, Barnyardgrass: 40
[10]; [27]
  Plant response rating, Crabgrass, Large: 10
[10]; [21]
  Plant response rating, Crabgrass, Large: 60
[11]; [27]
  Plant response rating, Foxtail, Giant: 0
[11]; [21]
  Plant response rating, Foxtail, Giant: 50
[12]; [27]
  Plant response rating, Morningglory: 30
[12]; [21]
  Plant response rating, Morningglory: 40
[13]; [27]
  Plant response rating, Pigweed: 30
[13]; [21]
  Plant response rating, Pigweed: 70
[14]; [27]
  Plant response rating, Velvetleaf: 50
[14]; [21]
  Plant response rating, Velvetleaf: 60
[15]; [27]
  Plant response rating, Wheat: 0
[15]; [21]
  Plant response rating, Wheat: 0
[16]; [27]
  Plant response rating, Corn: 0
[16]; [21]
  Plant response rating, Corn: 10
[17]
  Plant response rating, Rice: 0
[18]
  Plant response rating, Sedge, Umbrella: 0
[19]
  Plant response rating, Ducksalad: 0
[20]
  Plant response rating, Barnyardgrass: 0
